Values after ≈ are worked out from the molar mass of the structure shown.
Assays:
Format in all cases: functional
Enterococcus faecalis = assay: Antimicrobial activity against daptomycin-resistant Enterococcus faecalis ATCC 49452 incubated anaerobically at 37 degC for 48 hrs by agar dilution method; settings: ATCC 49452, 48 h
Clostridioides difficile [1] = assay: Antimicrobial activity against daptomycin-resistant Clostridium difficile NAP1 incubated anaerobically at 37 degC for 48 hrs by agar dilution method; settings: NAP1, 48 h
Enterococcus faecium = assay: Antimicrobial activity against daptomycin-resistant Enterococcus faecium ATCC 6569 incubated anaerobically at 37 degC for 48 hrs by agar dilution method; settings: ATCC 6569, 48 h
Clostridioides difficile [2] = assay: Antimicrobial activity against daptomycin-resistant Clostridium difficile ATCC 43596 infected in Syrian golden hamster model of Clostridium difficile-associated diarrhea assessed as protection against microbial infection by measuring survival at day 25 to 26 at 0.5 mg/kg treated once daily for 5 consecutive days starting 4 hrs after spore inoculation
Staphylococcus aureus = assay: Antimicrobial activity against daptomycin-susceptible Staphylococcus aureus ATCC 29213 incubated anaerobically at 37 degC for 48 hrs by agar dilution method; settings: ATCC 29213, 48 h

| Structure (SMILES) | MIC (Enterococcus faecalis) [µg/mL] | MIC (Clostridioides difficile [1]) [µg/mL] | MIC (Enterococcus faecium) [µg/mL] | survival at 0.5 mg/kg (Clostridioides difficile [2]) [%] | MIC (Staphylococcus aureus) [µg/mL] |
| --- | --- | --- | --- | --- | --- |
| CCCCC[C@H]1CC[C@H](C(=O)N[C@@H](Cc2c[nH]c3ccccc23)C(=O)N[C@@H](CC(N)=O)C(=O)N[C@@H](CC(=O)O)C(=O)N[C@@H]2C(=O)NCC(=O)N[C@@H](CCCN)C(=O)N[C@H](CC(=O)O)C(=O)N[C@H](C)C(=O)N[C@@H](CC(=O)O)C(=O)NCC(=O)N[C@H](CO)C(=O)N[C@@H]([C@@H](C)CC(=O)O)C(=O)N[C@@H](CC(=O)c3ccccc3N)C(=O)O[C@@H]2C)CC1 | > 32 | 0.5 (≈ 0.304 µM) | 16 (≈ 9.72 µM) | 60 | 0.5 (≈ 0.304 µM) |
| CCCCCC12CCC(C(=O)N[C@@H](Cc3c[nH]c4ccccc34)C(=O)N[C@@H](CC(N)=O)C(=O)N[C@@H](CC(=O)O)C(=O)N[C@@H]3C(=O)NCC(=O)N[C@@H](CCCN)C(=O)N[C@H](CC(=O)O)C(=O)N[C@H](C)C(=O)N[C@@H](CC(=O)O)C(=O)NCC(=O)N[C@H](CO)C(=O)N[C@@H]([C@@H](C)CC(=O)O)C(=O)N[C@@H](CC(=O)c4ccccc4N)C(=O)O[C@@H]3C)(CC1)CC2 | 32 (≈ 19.1 µM) | 1 (≈ 0.598 µM) | 16 (≈ 9.56 µM) | 60 | 0.25 (≈ 0.149 µM) |
| CCCCCCCCOc1ccc(-c2ccc(C(=O)N[C@@H](Cc3c[nH]c4ccccc34)C(=O)N[C@@H](CC(N)=O)C(=O)N[C@@H](CC(=O)O)C(=O)N[C@@H]3C(=O)NCC(=O)N[C@@H](CCCN)C(=O)N[C@H](CC(=O)O)C(=O)N[C@H](C)C(=O)N[C@@H](CC(=O)O)C(=O)NCC(=O)N[C@H](CO)C(=O)N[C@@H]([C@@H](C)CC(=O)O)C(=O)N[C@@H](CC(=O)c4ccccc4N)C(=O)O[C@@H]3C)cc2)cc1 | 16 (≈ 9.01 µM) | 1 (≈ 0.563 µM) | 4 (≈ 2.25 µM) | – | 0.125 (≈ 0.0704 µM) |
| C[C@H]1NC(=O)[C@@H](CC(=O)O)NC(=O)[C@H](CCCN)NC(=O)CNC(=O)[C@@H](NC(=O)[C@H](CC(=O)O)NC(=O)[C@H](CC(N)=O)NC(=O)[C@H](Cc2c[nH]c3ccccc23)NC(=O)c2ccc(-c3ccc(Cl)cc3)cc2)[C@@H](C)OC(=O)[C@H](CC(=O)c2ccccc2N)NC(=O)[C@H]([C@@H](C)CC(=O)O)NC(=O)[C@@H](CO)NC(=O)CNC(=O)[C@H](CC(=O)O)NC1=O | > 32 | 16 (≈ 9.52 µM) | > 32 | – | 4 (≈ 2.38 µM) |
| CCCCCCCCCCC(=O)N[C@@H](Cc1c[nH]c2ccccc12)C(=O)N[C@@H](CC(N)=O)C(=O)N[C@@H](CC(=O)O)C(=O)N[C@@H]1C(=O)NCC(=O)N[C@@H](CCCN)C(=O)NC(CC(=O)O)C(=O)N[C@H](C)C(=O)N[C@@H](CC(=O)O)C(=O)NCC(=O)N[C@H](CO)C(=O)N[C@@H]([C@@H](C)CC(=O)O)C(=O)N[C@@H](CC(=O)c2ccccc2N)C(=O)O[C@@H]1C (single isomer, unassigned) | 32 (≈ 19.6 µM) | 4 (≈ 2.45 µM) | > 32 | – | 2 (≈ 1.22 µM) |
| CCCCCCCCCCCCC(=O)N[C@@H](Cc1c[nH]c2ccccc12)C(=O)N[C@@H](CC(N)=O)C(=O)N[C@@H](CC(=O)O)C(=O)N[C@@H]1C(=O)NCC(=O)N[C@@H](CCCN)C(=O)NC(CC(=O)O)C(=O)N[C@H](C)C(=O)N[C@@H](CC(=O)O)C(=O)NCC(=O)N[C@H](CO)C(=O)N[C@@H]([C@@H](C)CC(=O)O)C(=O)N[C@@H](CC(=O)c2ccccc2N)C(=O)O[C@@H]1C (single isomer, unassigned) | 8 (≈ 4.81 µM) | 8 (≈ 4.81 µM) | 8 (≈ 4.81 µM) | – | 0.5 (≈ 0.301 µM) |
| CCCCCCCCCCCCCC(=O)N[C@@H](Cc1c[nH]c2ccccc12)C(=O)N[C@@H](CC(N)=O)C(=O)N[C@@H](CC(=O)O)C(=O)N[C@@H]1C(=O)NCC(=O)N[C@@H](CCCN)C(=O)NC(CC(=O)O)C(=O)N[C@H](C)C(=O)N[C@@H](CC(=O)O)C(=O)NCC(=O)N[C@H](CO)C(=O)N[C@@H]([C@@H](C)CC(=O)O)C(=O)N[C@@H](CC(=O)c2ccccc2N)C(=O)O[C@@H]1C (single isomer, unassigned) | 4 (≈ 2.39 µM) | 16 (≈ 9.54 µM) | 4 (≈ 2.39 µM) | – | 1 (≈ 0.596 µM) |
| CCCCCCCCCCCCCCC(=O)N[C@@H](Cc1c[nH]c2ccccc12)C(=O)N[C@@H](CC(N)=O)C(=O)N[C@@H](CC(=O)O)C(=O)N[C@@H]1C(=O)NCC(=O)N[C@@H](CCCN)C(=O)NC(CC(=O)O)C(=O)N[C@H](C)C(=O)N[C@@H](CC(=O)O)C(=O)NCC(=O)N[C@H](CO)C(=O)N[C@@H]([C@@H](C)CC(=O)O)C(=O)N[C@@H](CC(=O)c2ccccc2N)C(=O)O[C@@H]1C (single isomer, unassigned) | 4 (≈ 2.37 µM) | 16 (≈ 9.46 µM) | 4 (≈ 2.37 µM) | – | 1 (≈ 0.591 µM) |
| CC(C)CCCCCCCCCC(=O)N[C@@H](Cc1c[nH]c2ccccc12)C(=O)N[C@@H](CC(N)=O)C(=O)N[C@@H](CC(=O)O)C(=O)N[C@@H]1C(=O)NCC(=O)N[C@@H](CCCN)C(=O)NC(CC(=O)O)C(=O)N[C@H](C)C(=O)N[C@@H](CC(=O)O)C(=O)NCC(=O)N[C@H](CO)C(=O)N[C@@H]([C@@H](C)CC(=O)O)C(=O)N[C@@H](CC(=O)c2ccccc2N)C(=O)O[C@@H]1C (single isomer, unassigned) | > 32 | 1 (≈ 0.601 µM) | 4 (≈ 2.41 µM) | – | 0.25 (≈ 0.15 µM) |
| CC(C)CCCCCCCCCCC(=O)N[C@@H](Cc1c[nH]c2ccccc12)C(=O)N[C@@H](CC(N)=O)C(=O)N[C@@H](CC(=O)O)C(=O)N[C@@H]1C(=O)NCC(=O)N[C@@H](CCCN)C(=O)NC(CC(=O)O)C(=O)N[C@H](C)C(=O)N[C@@H](CC(=O)O)C(=O)NCC(=O)N[C@H](CO)C(=O)N[C@@H]([C@@H](C)CC(=O)O)C(=O)N[C@@H](CC(=O)c2ccccc2N)C(=O)O[C@@H]1C (single isomer, unassigned) | 16 (≈ 9.54 µM) | 1 (≈ 0.596 µM) | 4 (≈ 2.39 µM) | – | 0.125 (≈ 0.0745 µM) |
| C[C@H]1NC(=O)C(CC(=O)O)NC(=O)[C@H](CCCN)NC(=O)CNC(=O)[C@@H](NC(=O)[C@H](CC(=O)O)NC(=O)[C@H](CC(N)=O)NC(=O)[C@H](Cc2c[nH]c3ccccc23)NC(=O)CCCCC2CCCCC2)[C@@H](C)OC(=O)[C@H](CC(=O)c2ccccc2N)NC(=O)[C@H]([C@@H](C)CC(=O)O)NC(=O)[C@@H](CO)NC(=O)CNC(=O)[C@H](CC(=O)O)NC1=O (single isomer, unassigned) | > 32 | 4 (≈ 2.45 µM) | 32 (≈ 19.6 µM) | – | 1 (≈ 0.612 µM) |
| C[C@H]1NC(=O)C(CC(=O)O)NC(=O)[C@H](CCCN)NC(=O)CNC(=O)[C@@H](NC(=O)[C@H](CC(=O)O)NC(=O)[C@H](CC(N)=O)NC(=O)[C@H](Cc2c[nH]c3ccccc23)NC(=O)CCCCCCC2CCCCC2)[C@@H](C)OC(=O)[C@H](CC(=O)c2ccccc2N)NC(=O)[C@H]([C@@H](C)CC(=O)O)NC(=O)[C@@H](CO)NC(=O)CNC(=O)[C@H](CC(=O)O)NC1=O (single isomer, unassigned) | 16 (≈ 9.63 µM) | 1 (≈ 0.602 µM) | 8 (≈ 4.82 µM) | – | 0.5 (≈ 0.301 µM) |
| C[C@H]1NC(=O)C(CC(=O)O)NC(=O)[C@H](CCCN)NC(=O)CNC(=O)[C@@H](NC(=O)[C@H](CC(=O)O)NC(=O)[C@H](CC(N)=O)NC(=O)[C@H](Cc2c[nH]c3ccccc23)NC(=O)CCCCCC2CCCCC2)[C@@H](C)OC(=O)[C@H](CC(=O)c2ccccc2N)NC(=O)[C@H]([C@@H](C)CC(=O)O)NC(=O)[C@@H](CO)NC(=O)CNC(=O)[C@H](CC(=O)O)NC1=O (single isomer, unassigned) | > 32 | 2 (≈ 1.21 µM) | 16 (≈ 9.72 µM) | – | 1 (≈ 0.607 µM) |
| C[C@H]1NC(=O)C(CC(=O)O)NC(=O)[C@H](CCCN)NC(=O)CNC(=O)[C@@H](NC(=O)[C@H](CC(=O)O)NC(=O)[C@H](CC(N)=O)NC(=O)[C@H](Cc2c[nH]c3ccccc23)NC(=O)CCCCCc2ccccc2)[C@@H](C)OC(=O)[C@H](CC(=O)c2ccccc2N)NC(=O)[C@H]([C@@H](C)CC(=O)O)NC(=O)[C@@H](CO)NC(=O)CNC(=O)[C@H](CC(=O)O)NC1=O (single isomer, unassigned) | > 32 | 16 (≈ 9.75 µM) | > 32 | – | 16 (≈ 9.75 µM) |
| C[C@H]1NC(=O)C(CC(=O)O)NC(=O)[C@H](CCCN)NC(=O)CNC(=O)[C@@H](NC(=O)[C@H](CC(=O)O)NC(=O)[C@H](CC(N)=O)NC(=O)[C@H](Cc2c[nH]c3ccccc23)NC(=O)CCCCCCc2ccccc2)[C@@H](C)OC(=O)[C@H](CC(=O)c2ccccc2N)NC(=O)[C@H]([C@@H](C)CC(=O)O)NC(=O)[C@@H](CO)NC(=O)CNC(=O)[C@H](CC(=O)O)NC1=O (single isomer, unassigned) | > 32 | 8 (≈ 4.83 µM) | > 32 | – | 16 (≈ 9.67 µM) |
| CCCCCOc1ccc(/C=C/C(=O)N[C@@H](Cc2c[nH]c3ccccc23)C(=O)N[C@@H](CC(N)=O)C(=O)N[C@@H](CC(=O)O)C(=O)N[C@@H]2C(=O)NCC(=O)N[C@@H](CCCN)C(=O)NC(CC(=O)O)C(=O)N[C@H](C)C(=O)N[C@@H](CC(=O)O)C(=O)NCC(=O)N[C@H](CO)C(=O)N[C@@H]([C@@H](C)CC(=O)O)C(=O)N[C@@H](CC(=O)c3ccccc3N)C(=O)O[C@@H]2C)cc1 (single isomer, unassigned) | > 32 | 4 (≈ 2.38 µM) | > 32 | – | 4 (≈ 2.38 µM) |
| CCCCc1ccc(/C=C(\C)C(=O)N[C@@H](Cc2c[nH]c3ccccc23)C(=O)N[C@@H](CC(N)=O)C(=O)N[C@@H](CC(=O)O)C(=O)N[C@@H]2C(=O)NCC(=O)N[C@@H](CCCN)C(=O)NC(CC(=O)O)C(=O)N[C@H](C)C(=O)N[C@@H](CC(=O)O)C(=O)NCC(=O)N[C@H](CO)C(=O)N[C@@H]([C@@H](C)CC(=O)O)C(=O)N[C@@H](CC(=O)c3ccccc3N)C(=O)O[C@@H]2C)cc1 (single isomer, unassigned) | > 32 | 2 (≈ 1.2 µM) | 32 (≈ 19.2 µM) | – | 1 (≈ 0.6 µM) |
| CCCCCCOc1ccc(-c2csc(C(=O)N[C@@H](Cc3c[nH]c4ccccc34)C(=O)N[C@@H](CC(N)=O)C(=O)N[C@@H](CC(=O)O)C(=O)N[C@@H]3C(=O)NCC(=O)N[C@@H](CCCN)C(=O)NC(CC(=O)O)C(=O)N[C@H](C)C(=O)N[C@@H](CC(=O)O)C(=O)NCC(=O)N[C@H](CO)C(=O)N[C@@H]([C@@H](C)CC(=O)O)C(=O)N[C@@H](CC(=O)c4ccccc4N)C(=O)O[C@@H]3C)c2)cc1 (single isomer, unassigned) | 8 (≈ 4.56 µM) | 4 (≈ 2.28 µM) | 2 (≈ 1.14 µM) | – | 0.5 (≈ 0.285 µM) |

Source: ChEMBL document CHEMBL3576778, “Structure-Activity Relationship Studies of a Series of Semisynthetic Lipopeptides Leading to the Discovery of Surotomycin, a Novel Cyclic Lipopeptide Being Developed for the Treatment of Clostridium difficile-Associated Diarrhea” (J Med Chem, 2015)
